Measured values reported in patent publication US6368651B1, “Use of additives to modify the taste characteristics of N-neohexyl-α-aspartyl-L-phenylalanine methyl ester” (The NutraSweet Company, priority 1999, dated 2002).

How the values were obtained:
[1] = Taste evaluation in neotame-sweetened reconstituted powdered soft drink; settings: serine 5 ppm to 30 ppm; reconstituted strawberry-flavored powdered soft drink
[2] = Taste evaluation in neotame-sweetened strawberry-flavored yogurt; settings: serine 25 ppm
[3] = Taste evaluation in neotame-sweetened cola-flavored beverage; settings: serine 50 ppm; cola
Method: When a neotame salt was used as a taste modifying/sweetening ingredient, the neotame salt as added in an amount sufficient to provide about 15 ppm to about 25 ppm neotame (e.g., about 0.0028 g of a potassium neotame salt would be used to provide 100 ml of a 25 ppm neotame solution). The taste modifying ingredient was dissolved in the sweetened beverage and the beverage was allowed to stand overnight at room temperature prior to evaluation. Evaluations of the cola-flavored beverages were conducted using a beverage containing water, sodium benzoate (0.16%), phosphoric acid (0.22%), citric acid (0.05%), trisodium citrate (0.08%), caffeine (0.03%), Flavor 28 (1.72%), sweetened with neotame in an amount of about 0.0015% to about 0.0025% (15 ppm to 25 ppm), adjusted to pH 3.2 using sodium citrate.

Measured: taste characteristic imparted by neotame

N[C@@H](CO)C(=O)O [serine]
positively affected: all assays above
